This passage reports IC50 results from patent US11639343B2, “Compounds targeting and degrading BCR-ABL protein and its antitumor application” (ShanghaiTech University, priority 2019, dated 2023).

Read-outs that look alike come from different tables or passages of the source. A value given as a limit tells only on which side of the number the result lay.

One test has as its system K562 (BCR-ABL+) cells. Nature of the test: CCK-8 proliferation inhibition, K562 cells.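 Further: Ten-point threefold dilution series starting at 10 µM, absorbance at 450 nm after 2 h with CCK-8, DMSO as negative control.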 Format: cell-based, human. Particulars: read-out: Proliferative inhibitory activity (IC50, nM) K562 (BCR-ABL+).
The test system of another test is U937 (BCR-ABL-) cells. Nature of the test: CCK-8 proliferation inhibition, U937 cells.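 Further: Ten-point threefold dilution series, absorbance at 450 nm after 2 h with CCK-8 reagent, DMSO as negative control.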 Format: cell-based, human. Particulars: read-out: Proliferative inhibitory activity (IC50, nM) U937 (BCR-ABL-).
The next test deals with HEK293 (BCR-ABL-) cells. Put plainly: CCK-8 proliferation inhibition, HEK293 cells.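 Further: Ten-point threefold dilution series starting at 10 µM, CCK-8 absorbance at 450 nm read after 2 h reagent incubation, DMSO-treated cells as negative control.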 Particulars: read-out: Proliferative inhibitory activity (IC50, nM) HEK293 (BCR-ABL-).
[1] abbreviates: Homo sapiens, K562, 48 h, CCK-8, 48 hours of drug treatment.
[2] abbreviates: Homo sapiens, U-937, CCK-8, 48 hours of drug treatment, highest concentration 10 μM.
The mark [3] stands for this setting: CCK-8, 48 hours of drug treatment, highest concentration 10 μM.
Setting [4] is: CCK-8, 48 hours of drug treatment.

For the compound `COc1cc(Nc2c(C#N)cnc3cc(OCCCN4CCN(C)CC4)c(OC)cc23)c(Cl)cc1Cl` [Bosutinib, reference compound], the IC50 – broadly, the concentration needed to halve the response being measured – is 29.6 nM in the test with K562 (BCR-ABL+) cells (Homo sapiens, K562, 48 h) and more than 10000 nM in the test with U937 (BCR-ABL-) cells (Homo sapiens, U-937, 48 h).

For the compound `Cc1nc(Nc2ncc(C(=O)Nc3c(C)cccc3Cl)s2)cc(N2CCN(C(=O)CCNc3cccc4c3C(=O)N(C3CCC(=O)NC3=O)C4=O)CC2)n1` (centres unmarked) [SIAIS151074, N-(2-chloro-6-methylphenyl)-2-((6-(4-(3-((2-(2,6-dioxopiperidin-3-yl)-1,3-dioxoisoindolin-4-yl)amino)propanoyl)piperazin-1-yl)-2-methylpyrimidin-4-yl)amino)thiazole-5-carboxamide], the IC50 was more than 10000 nM in the test with HEK293 (BCR-ABL-) cells (Homo sapiens, HEK293, 48 h); 6.8 nM in the test on K562 (BCR-ABL+) cells (setting [1]); more than 10000 nM in the test with U937 (BCR-ABL-) cells (setting [2]).

Regarding `Cc1nc(Nc2ncc(C(=O)Nc3c(C)cccc3Cl)s2)cc(N2CCN(C(=O)COCCOCC(=O)N[C@H](C(=O)N3C[C@H](O)C[C@H]3C(=O)NCc3ccc(-c4scnc4C)cc3)C(C)(C)C)CC2)n1` [SIAIS151076, N-(2-chloro-6-methylphenyl)-2-((6-(4-(2-(2-(2-(((S)-1-((2S,4R)-4-hydroxy-2-((4-(4-methylthiazol-5-yl)benzyl)carbamoyl)pyrrolidin-1-yl)-3,3-dimethyl-1-oxobutan-2-yl)amino)-2-oxoethoxy)ethoxy)acetyl)piperazin-1-yl)-2-methylpyrimidin-4-yl)amino)thiazole-5-carboxamide], the IC50 is more than 10000 nM in the test with HEK293 (BCR-ABL-) cells (setting [3]), 670 nM with K562 (BCR-ABL+) cells (setting [4]) and more than 10000 nM with U937 (BCR-ABL-) cells (setting [3]).

With `Cc1nc(Nc2ncc(C(=O)Nc3c(C)cccc3Cl)s2)cc(N2CCN(C(=O)CCOCCOCCOCCC(=O)N[C@H](C(=O)N3C[C@H](O)C[C@H]3C(=O)NCc3ccc(-c4scnc4C)cc3)C(C)(C)C)CC2)n1` [SIAIS151077, N-(2-chloro-6-methylphenyl)-2-((6-(4-((S)-15-((2S,4R)-4-hydroxy-2-((4-(4-methylthiazol-5-yl)benzyl)carbamoyl)pyrrolidine-1-carbonyl)-16,16-dimethyl-13-oxo-4,7,10-trioxa-14-azaheptadecanoyl)piperazin-1-yl)-2-methylpyrimidin-4-yl)amino)thiazole-5-carboxamide], the IC50 in the test on HEK293 (BCR-ABL-) cells (Homo sapiens, HEK293, 48 h) is more than 10000 nM; in the test with K562 (BCR-ABL+) cells (setting [1]) it was 3430 nM; in the test with U937 (BCR-ABL-) cells (setting [2]), more than 10000 nM.

For `Cc1nc(Nc2ncc(C(=O)Nc3c(C)cccc3Cl)s2)cc(N2CCN(C(=O)CCOCCOCCOCCOCCOCCC(=O)N[C@H](C(=O)N3C[C@H](O)C[C@H]3C(=O)NCc3ccc(-c4scnc4C)cc3)C(C)(C)C)CC2)n1` [SIAIS151079, N-(2-chloro-6-methylphenyl)-2-((6-(4-((S)-21-((2S,4R)-4-hydroxy-2-((4-(4-methylthiazol-5-yl)benzyl)carbamoyl)pyrrolidine-1-carbonyl)-22,22-dimethyl-19-oxo-4,7,10,13,16-pentaoxa-20-azatricosanoyl)piperazin-1-yl)-2-methylpyrimidin-4-yl)amino)thiazole-5-carboxamide], the IC50 in the test on HEK293 (BCR-ABL-) cells (Homo sapiens, HEK293, 48 h) is more than 10000 nM; in the test with K562 (BCR-ABL+) cells (setting [1]), 1610 nM; in the test on U937 (BCR-ABL-) cells (setting [2]), more than 10000 nM.

Consider `Cc1nc(Nc2ncc(C(=O)Nc3c(C)cccc3Cl)s2)cc(N2CCN(C(=O)COCCOCC(=O)N[C@H](C(=O)N3C[C@H](O)C[C@H]3C(=O)NCc3ccc(-c4scnc4C)cc3)C(C)(C)C)CC2)n1` [SIAIS151080, N-(2-chloro-6-methylphenyl)-2-((6-(4-(2-(2-(2-(((S)-1-((2S,4R)-4-hydroxy-2-((4-(4-methylthiazol-5-yl)benzyl)carbamoyl)pyrrolidin-1-yl)-3,3-dimethyl-1-oxobutan-2-yl)amino)-2-oxoethoxy)ethoxy)acetyl)piperazin-1-yl)-2-methylpyrimidin-4-yl)amino)thiazole-5-carboxamide], for which the IC50 was more than 10000 nM with HEK293 (BCR-ABL-) cells (Homo sapiens, HEK293, 48 h); 2240 nM in the test on K562 (BCR-ABL+) cells (setting [4]); more than 10000 nM in the test on U937 (BCR-ABL-) cells (setting [2]).

Regarding `COc1cc(Nc2c(C#N)cnc3cc(OCCCN4CCN(C(=O)CC(=O)Nc5cccc6c5CN(C5CCC(=O)NC5=O)C6=O)CC4)c(OC)cc23)c(Cl)cc1Cl` (centres unmarked) [SIAIS164104, 3-(4-(3-((3-cyano-4-((2,4-dichloro-5-methoxyphenyl)amino)-6-methoxyquinolin-7-yl)oxy)propyl)piperazin-1-yl)-N-(2-(2,6-dioxopiperidin-3-yl)-1-oxoisoindolin-4-yl)-3-oxopropanamide], the IC50 was more than 10000 nM with HEK293 (BCR-ABL-) cells (Homo sapiens, HEK293, 48 h); 811 nM in the test with K562 (BCR-ABL+) cells (setting [1]); more than 10000 nM in the test on U937 (BCR-ABL-) cells (setting [2]).

Turning to `COc1cc(Nc2c(C#N)cnc3cc(OCCCN4CCN(C(=O)CCCC(=O)Nc5cccc6c5CN(C5CCC(=O)NC5=O)C6=O)CC4)c(OC)cc23)c(Cl)cc1Cl` (centres unmarked) [SIAIS164106, 5-(4-(3-((3-cyano-4-((2,4-dichloro-5-methoxyphenyl)amino)-6-methoxyquinolin-7-yl)oxy)propyl)piperazin-1-yl)-N-(2-(2,6-dioxopiperidin-3-yl)-1-oxoisoindolin-4-yl)-5-oxopentanamide], the IC50 in the test on HEK293 (BCR-ABL-) cells (Homo sapiens, HEK293, 48 h) was more than 10000 nM; in the test with K562 (BCR-ABL+) cells (setting [1]), 438 nM; in the test on U937 (BCR-ABL-) cells (setting [2]) it was more than 10000 nM.

On to `Cc1nc(Nc2ncc(C(=O)Nc3c(C)cccc3Cl)s2)cc(N2CCN(C(=O)CCCc3cn(CCCC(=O)N[C@H](C(=O)N4C[C@H](O)C[C@H]4C(=O)NCc4ccc(-c5scnc5C)cc4)C(C)(C)C)nn3)CC2)n1` [SIAIS164134, N-(2-chloro-6-methylphenyl)-2-((6-(4-(4-(1-(4-(((S)-1-((2S,4R)-4-hydroxy-2-((4-(4-methylthiazol-5-yl)benzyl)carbamoyl)pyrrolidin-1-yl)-3,3-dimethyl-1-oxobutan-2-yl)amino)-4-oxobutyl)-1H-1,2,3-triazol-4-yl)butanoyl)piperazin-1-yl)-2-methylpyrimidin-4-yl)amino)thiazole-5-carboxamide], for which the IC50 in the test with HEK293 (BCR-ABL-) cells (Homo sapiens, HEK293, 48 h) was more than 10000 nM; in the test on K562 (BCR-ABL+) cells (setting [1]), 12 nM; with U937 (BCR-ABL-) cells (setting [2]) it was more than 10000 nM.

With `Cc1nc(Nc2ncc(C(=O)Nc3c(C)cccc3Cl)s2)cc(N2CCN(C(=O)CCCCCCCCCCCCC(=O)N[C@H](C(=O)N3C[C@H](O)C[C@H]3C(=O)NCc3ccc(-c4scnc4C)cc3)C(C)(C)C)CC2)n1` [SIAIS164193, N-(2-chloro-6-methylphenyl)-2-((6-(4-(14-(((S)-1-((2S,4R)-4-hydroxy-2-((4-(4-methylthiazol-5-yl)benzyl)carbamoyl)pyrrolidin-1-yl)-3,3-dimethyl-1-oxobutan-2-yl)amino)-14-oxotetradecanoyl)piperazin-1-yl)-2-methylpyrimidin-4-yl)amino)thiazole-5-carboxamide], the IC50 in the test with HEK293 (BCR-ABL-) cells (Homo sapiens, HEK293, 48 h) is more than 10000 nM; in the test with K562 (BCR-ABL+) cells (setting [1]) it was 14.4 nM; in the test on U937 (BCR-ABL-) cells (setting [2]) it was more than 10000 nM.

As to `Cc1nc(Nc2ncc(C(=O)Nc3c(C)cccc3Cl)s2)cc(N2CCN(C(=O)CCCCCCCCCCCCCCC(=O)N[C@H](C(=O)N3C[C@H](O)C[C@H]3C(=O)NCc3ccc(-c4scnc4C)cc3)C(C)(C)C)CC2)n1` [SIAIS164194, N-(2-chloro-6-methylphenyl)-2-((6-(4-(16-(((S)-1-((2S,4R)-4-hydroxy-2-((4-(4-methylthiazol-5-yl)benzyl)carbamoyl)pyrrolidin-1-yl)-3,3-dimethyl-1-oxobutan-2-yl)amino)-16-oxohexadecanoyl)piperazin-1-yl)-2-methylpyrimidin-4-yl)amino)thiazole-5-carboxamide], the IC50 with HEK293 (BCR-ABL-) cells (Homo sapiens, HEK293, 48 h) was more than 10000 nM; in the test with K562 (BCR-ABL+) cells (setting [1]) it was 32.3 nM; in the test on U937 (BCR-ABL-) cells (setting [2]), more than 10000 nM.

Turning to `Cc1nc(Nc2ncc(C(=O)Nc3c(C)cccc3Cl)s2)cc(N2CCN(C(=O)CCCCCOCCOCCOCCCCCC(=O)N[C@H](C(=O)N3C[C@H](O)C[C@H]3C(=O)NCc3ccc(-c4scnc4C)cc3)C(C)(C)C)CC2)n1` [SIAIS180147, N-(2-chloro-6-methylphenyl)-2-((6-(4-((S)-3-((2S,4R)-4-hydroxy-2-((4-(4-methylthiazol-5-yl)benzyl)carbamoyl)pyrrolidine-1-carbonyl)-2,2-dimethyl-5-oxo-11,14,17-trioxa-4-azatricosan-23-oyl)piperazin-1-yl)-2-methylpyrimidin-4-yl)amino)thiazole-5-carboxamide], the IC50 in the test with HEK293 (BCR-ABL-) cells (Homo sapiens, HEK293, 48 h) is more than 10000 nM; in the test with K562 (BCR-ABL+) cells (setting [1]), 14.9 nM; with U937 (BCR-ABL-) cells (setting [2]) it was more than 10000 nM.

For `Cc1nc(Nc2ncc(C(=O)Nc3c(C)cccc3Cl)s2)cc(N2CCN(C(=O)CCCCNC(=O)CCCCCCCCC(=O)N[C@H](C(=O)N3C[C@H](O)C[C@H]3C(=O)NCc3ccc(-c4scnc4C)cc3)C(C)(C)C)CC2)n1` [SIAIS184032, N1-(5-(4-(6-((5-((2-chloro-6-methylphenyl)carbamoyl)thiazol-2-yl)amino)-2-methylpyrimidin-4-yl)piperazin-1-yl)-5-oxopentyl)-N10-((S)-1-((2S,4R)-4-hydroxy-2-((4-(4-methylthiazol-5-yl)benzyl)carbamoyl)pyrrolidin-1-yl)-3,3-dimethyl-1-oxobutan-2-yl)decanediamide], the IC50 is more than 10000 nM in the test on HEK293 (BCR-ABL-) cells (Homo sapiens, HEK293, 48 h); 72 nM with K562 (BCR-ABL+) cells (setting [1]); more than 10000 nM with U937 (BCR-ABL-) cells (setting [2]).
